Results as given in PMC7246848, “Comparative Cerebroprotective Potential of D- and L-Carnosine Following Ischemic Stroke in Mice” (International Journal of Molecular Sciences, 2020).
Like-named read-outs stand apart in the source and are kept apart here.

How the values were obtained:
[1] = parameters: method as in PMID 19301317; conditions: cited from earlier work
primary mouse neurons [2] = assay: NMDA excitotoxicity assay, cell viability by MTT; assay type: cell-based; conditions: 24 h pretreatment, 24 h after NMDA
Experimental: Primary cortical neurons were prepared from embryonic day 16 C57bl/6J mouse pups or embryonic day 18 Wistar rat pups. Briefly, cerebral cortices were physically and chemically dissociated with 0.25% trypsin-EDTA (Gibco, Waltham, MA, USA) in dissociation medium (HBSS) at 37 °C for 15 min followed by trituration. The dissociated cells were checked under a microscope for single cells and plated out on poly-L-lysine (Sigma-Aldrich) -coated, 24-well plates (187,500 cells/well) for the excitotoxicity assays, and 96-well plates (47,000 cells/well) for the oxidative stress assays. […]
Neurons were pretreated with L- or D-carnosine for 24 h prior to NMDA stimulation (30 µM) for 30 min. […] Cytotoxicity was measured after 24 h using the Pierce cytotoxicity lactate dehydrogenase (LDH) assay kit. Cell viability was measured by 3-[4–Dimethylthiazol-2-yl]-2,5-diphenyltetrazolium bromide (MTT) assay, which reflects cell metabolism. After NMDA removal, the cells were evaluated for cell viability after 24 h with the addition of fresh media containing each drug. […] Insoluble formazan was dissolved by the addition of 100 μL of DMSO and the absorbance (570 nm) was measured using a multimode plate reader (EnSpire, PerkinElmer, Waltham, MA, USA).

primary mouse neurons [3] = assay: Oxidative stress assay: ROS accumulation (DCF fluorescence) after B27 withdrawal; assay type: cell-based; conditions: 24 h B27 withdrawal
Experimental: (§1) Primary cortical neurons were prepared from embryonic day 16 C57bl/6J mouse pups or embryonic day 18 Wistar rat pups. Briefly, cerebral cortices were physically and chemically dissociated with 0.25% trypsin-EDTA (Gibco, Waltham, MA, USA) in dissociation medium (HBSS) at 37 °C for 15 min followed by trituration. The dissociated cells were checked under a microscope for single cells and plated out on poly-L-lysine (Sigma-Aldrich) -coated, 24-well plates (187,500 cells/well) for the excitotoxicity assays, and 96-well plates (47,000 cells/well) for the oxidative stress assays. Neuronal cultures were maintained in B27 neurobasal medium with Glutamax and pen-strep (Gibco) in a 5% CO2 incubator at 37 °C, and cells were used at 11–14 days in vitro for experiments.
Cytosolic oxidative stress was determined using dichlorofluorescein (DCF) fluorescence. Primary neurons were loaded with 20 µM 2′, 7′-dichlorodihydrofluorescein diacetate (H2DCFDA; Invitrogen) for 45 min, washed and oxidative stress was induced by B27-withdrawal for 24 h, in the presence or absence of L- or D-carnosine. The fluorescence of oxidized DCF was read after 24 h at Ex485 nm/Em530 nm using the Pherastar FS platereader.

[4] = tested on: transient focal cerebral ischemia (MCAO); assay: Transient focal cerebral ischemia (60 min t-MCAO), infarct volume by TTC staining; assay type: in vivo, mice; conditions: for infarct volume reduction in comparison to saline: 48 h post-t-MCAO; for infarct volume reduction: 1000 mg/kg intravenously 2 h post-t-MCAO, 48 h post-MCAO
Experimental: Mice were anesthetized by inhalation of 5% isoflurane (in 100% Oxygen) and maintained at 1.5% isoflurane throughout the surgical procedure. Body temperature was monitored throughout surgery using a rectal probe and maintained at 37 + 0.5 °C using a heating pad (World Precision Instruments, Hitchin, Hertfordshire, UK). Laser Doppler flowmetry (Moor Instruments, Sussex, UK) was used to monitor cerebral blood flow. Focal cerebral ischemia was induced by middle cerebral artery occlusion (MCAO) by insertion of an intraluminal monofilament. […] A midline incision was made on the ventral side of the neck and the left common carotid artery (CCA) was isolated and ligated. Another ligature was tied on the left external carotid artery (ECA) and a loose knot was tied onto the internal carotid artery (ICA) as well as CCA just below the bifurcation. A very fine incision was made on the lower end of CCA and the monofilament (Doccol Corporation, Sharon, MA, USA) was advanced approximately 9 mm distal to the bifurcation into the ICA until it reached the distal end of middle cerebral artery (MCA). Relative cerebral blood flow was monitored for initial 10 min postfilament insertion to confirm at least 70% reduction of […] values. The animals were kept under anesthesia for the ischemic period of 60 min, after which the filament was withdrawn and reperfusion (confirmed using LD) was allowed to take place. The knots were untied and the animals were allowed to recover at 37 °C for 1 h before they were transferred to their normal cages. In the first set of experiments, 60 min transient MCAO (t-MCAO) was induced in mice weighing 20-25 g. At the onset of reperfusion, saline or different doses of drugs (L- and D-carnosine; 100, 500 or 1000 mg/kg) were delivered intraperitoneally (IP). Postrecovery, the animals were allowed to recover, placed back in their normal environment for 48 h and then euthanized. (IP administration was used as it was technically difficult to do IV injections at reperfusion). In a second set of experiments, drugs and saline were administered intravenously 2 h post-t-MCAO at 1000 mg/kg. Forty-eight hours post-t-MCAO, mice were deeply anaesthetized with 5% isoflurane, brains were removed and coronal slices with a thickness of 1 mm were prepared. Brain slices were immersed in 2% TTC (Sigma Aldrich) solution and incubated at 37 °C for 20 min. The area of infarction was traced and measured using image J analysis software. The infarct area was also corrected for edema: (1-(total ipsilateral hemisphere-infarct region)/total contralateral hemisphere) × 100. Total infarct volume was calculated as the sum of all infarct areas multiplied by each section thickness.

[5] = assay type: in vivo; conditions: mice, doses up to 1000 mg/kg
rat cortical neurons = assay: NMDA excitotoxicity assay, LDH release; assay type: cell-based; conditions: NMDA 30 µM
Experimental: as §1
(§2) Neurons were pretreated with L- or D-carnosine for 24 h prior to NMDA stimulation (30 µM) for 30 min. Post-NMDA stimulation, the cells were washed and incubated back in the original medium in the presence or absence of L- and D-carnosine. Wells were washed and the B27-neurobasal medium was replaced in the presence or absence of L- or D-carnosine. Cytotoxicity was measured after 24 h using the Pierce cytotoxicity lactate dehydrogenase (LDH) assay kit. Cell viability was measured by 3-[4–Dimethylthiazol-2-yl]-2,5-diphenyltetrazolium bromide (MTT) assay, which reflects cell metabolism. After NMDA removal, the cells were evaluated for cell viability after 24 h with the addition of fresh media containing each drug. MTT (Sigma Aldrich; final 5 mg/mL) was added to each well and the cells were incubated for 2 h at 37 °C in the dark. Insoluble formazan was dissolved by the addition of 100 μL of DMSO and the absorbance (570 nm) was measured using a multimode plate reader (EnSpire, PerkinElmer, Waltham, MA, USA).

mouse cortical neurons = assay: NMDA excitotoxicity assay, LDH release; assay type: cell-based; conditions: NMDA 30 µM
Experimental: as §1, §2

[6] = parameters: method as in PMID 19301317; conditions: cited from earlier work; remark: listed apart in the source
[7] = Serum pharmacokinetics after single intravenous injection (LC-MS/MS); assay type: in vivo; conditions: mice, 1000 mg/kg IV; for serum levels (molar): converted from μg/mL; for half-life: naive pooled noncompartmental analysis
Experimental: Mice were randomly divided into the treatment groups (n = 4~5 mice/group for each time point) and given a single intravenous injection of saline or L-carnosine (1000 mg/kg) or D-carnosine (1000 mg/kg) through the tail vein. Anesthesia was induced by isoflurane inhalation and maintained during intravenous injection. Blood samples were collected by cardiac puncture at 0, 5, 15, 30, 60, 180 and 360 min postadministration of carnosine. Blood was incubated at room temperature for 30 min to allow clotting to occur, followed by centrifugation at 12,000 g to isolate serum. Remaining blood was removed from the body through perfusion with phosphate-buffered saline, and the brain was carefully isolated. Aliquots of brain tissue (300 mg) and serum (150 μL) were stored at −70 °C and used for analysis.
Carnosine levels in serum or brain were determined using liquid chromatography tandem-mass spectrometry (LC-MS/MS) as previously described with a slight modification. H-Tyr-His-OH (Bachem AG, Köln, Germany) was used as internal standard (IS). The entire procedure for sample and standard preparation was carried out on ice. Serum (150 μL) or homogenized brain tissue (300 mg) were deproteinized using an ultrasonicator (VCX 500, Sonics & Materials Inc., Newtown, CT, USA) with 1 mL of 1 M TCA and 50 μL of 3 M TCA, respectively. After spiking the IS (10 μg for brain and 200 ng for serum), each homogenate was centrifuged at 9000 g for 15 min at 4 °C. The supernatant was used for the assay of carnosine concentrations. Calibration curves were obtained by spiking known concentrations of L- or D-carnosine (Sigma-Aldrich, St. Louis, MO, USA) into homogenates of brain or serum obtained from untreated mice, and samples were processed as described above.
Chromatographic separation and quantitation were performed using an LC-MS/MS system composed of HPLC (Ultimate 3000, Dionex, Rome, Italy) coupled with electrospray ionization (ESI) and triple quadrupole-ion trap mass spectrometry (3200 Qtrap, AB Sciex, Ontario, Canada). Synergi C18-L (Phenomenex 150 × 4.6 mm, 4 μm particle size) column was used with a 0.8 mL/min flow rate of mobile phase. Isocratic elution of 75/25 (5 mM heptafluorobutyric acid/acetonitrile) was used for brain samples and gradient elution (95/5 to 80/20 for 6 min and holding for 4 min) was used for serum samples. The injection volume was 5 μL. For ESI source, ion spray voltage was 4.5 kV and capillary temperature was set at 650 °C which provided optimum ionization of each analyte. A multiple reaction monitoring (MRM) in positive mode was used to detect carnosine (m/z 227 > 110 as quant ion, 156 and 83 as qualifier), histidine (m/z 156 > 110 as quant ion, 83 and 82 as qualifier) and IS (m/z 319 > 110 as quant ion, 156 and 91 as qualifier). Pharmacokinetic parameters were calculated by noncompartmental analysis using a sparse sampling and naïve pooled approach (WinNonLin (Phoenix 64 Build 8.0.0.3176), Certara, Mountain View, CA, USA).

[8] = parameters: method as in PMID 23850642; conditions: rats, 15 min after intravenous injection of 2000 mg/kg; cited from earlier work
[9] = 100 mg/kg IP at onset of reperfusion
[10] = 500 mg/kg IP at onset of reperfusion
[11] = 1000 mg/kg IP at onset of reperfusion

Row | Compound | protection against decrease of cell viability by NMDA (MTT) (primary mouse neurons [2]) | attenuation of ROS accumulation (primary mouse neurons [3]; 200 µM) [%] | infarct volume reduction in comparison to saline [4, 9] [%] | infarct volume reduction in comparison to saline [4, 10] [%] | infarct volume reduction in comparison to saline [4, 11] [%] | infarct volume reduction [4] [%] | safety and tolerability [5] | reduction of cell death (LDH assay) (rat cortical neurons; 200 µM) [%] | reduction of cell death (LDH assay) (mouse cortical neurons; 10 µM) | reduction of cell death (LDH assay) (mouse cortical neurons; 100 µM) | reduction of cell death (LDH assay) (mouse cortical neurons; 200 µM) [%] | serum levels (molar) ([7]; 5 min after injection) [µM] | other results
1 | NCCC(=O)N[C@H](Cc1cnc[nH]1)C(=O)O [D-carnosine] | significant protection | 14.5 | 23.6 | 27.8 | 57.2 | 52.1 | safe and well tolerated | 22.8 | 13.1% | 13.3% | 15 | 25700 | ability to cross the blood brain barrier [1]: able to cross the blood brain barrier; reduction of cell death (LDH assay) (rat cortical neurons; 10 µM): 21.9%; reduction of cell death (LDH assay) (rat cortical neurons; 100 µM): 26.4%; stability in human plasma [6]: stable in human plasma; AUC ([7]; serum): 108112 µg·min/mL; CL ([7]; serum): 9.23 mL/min/kg; Vss ([7]; serum): 0.12 L/kg; Cmax (5 min) ([7]; serum, 5 min after injection): 5818 µg/mL; half-life ([7]; serum): 1.25 h
2 | NCCC(=O)N[C@@H](Cc1cnc[nH]1)C(=O)O [L-carnosine, β-alanyl-L-histidine] | significant protection | 19.3 | 33.4 | 30.94 | 47.4 | 53.8 | safe and well tolerated | 18.5 | did not show neuroprotection | did not show neuroprotection | 12.2 | 17700 | attenuation of ROS accumulation (primary mouse neurons [3]; 100 µM): 18.6%; clearance ([7]; mouse, serum): 11.1 mL/min/kg; Cmax ([7]; mouse, serum, 5 min after injection): 4010 µg/mL; half-life ([7]; mouse, serum, read-out: Half-Life): 1.3 h; AUC ([7]; mouse, serum, read-out: AUC (converted)): 89800 µg·min/mL; Vd ([7]; mouse, serum, read-out: Vss): 0.223 L/kg; serum levels of carnosine [8]: 15~20 mmol/L
